This note sets out measurements from patent publication US11407741B2, “Compounds and their use as selective inhibitors of caspase-2” (priority 2017, dated 2022).

Assay [1] concerns the target T1, Caspase-3 (Homo sapiens, UniProt P42574).
T1 construct: the Caspase-2 and Caspase-3 are human recombinant active enzymes; purchased R&D Systems 707-C3-010/CF
T1 sequence (P42574 29-175 limits assumed): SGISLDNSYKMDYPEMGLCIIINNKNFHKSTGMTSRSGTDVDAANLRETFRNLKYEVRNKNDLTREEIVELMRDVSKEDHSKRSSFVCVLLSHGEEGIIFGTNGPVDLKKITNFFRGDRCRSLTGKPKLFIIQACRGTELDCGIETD
T1 sequence (P42574 176-277 limits assumed): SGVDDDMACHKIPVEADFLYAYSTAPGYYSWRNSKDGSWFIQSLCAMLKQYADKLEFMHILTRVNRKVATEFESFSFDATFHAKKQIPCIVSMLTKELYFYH
Briefly: Caspase-3 inhibition assay for reversible inhibitors (IC50, Ki). The assay is classed as biochemical. To be noted: compared with Ac-VDVAD-CHO. How it is done:
A preliminary step in the characterization of an inhibitor is the determination of its IC50. The IC50 is the necessary concentration of an inhibitor to decrease the enzyme activity by 50% of its maximum and uninhibited value.
The compound, at different concentrations, is incubated with the enzyme and buffer for 30 minutes at 37° C. to allow formation of the Enzyme-Inhibitor complex. The reaction is initiated by addition of buffer and substrate, and then activity is measured over 15 minutes for the determination of initial velocities.
The enzyme and the inhibitor (or DMSO as control) are incubated for 30 minutes at 37° C. The complex thus formed is diluted to 100th in the buffer/substrate mixture and then the activity measurement is started over 20 minutes. The initial rate obtained for the DMSO represents the 100% activity and will serve as a reference for the quantification of the residual activity of the enzyme in the presence of the inhibitor.
The reaction is started over 20 minutes upon addition of the buffer-substrate mixture.
Initial velocity values in RFU·min^−1 are reduced to Specific Activity (SA)values (pmol/min/μg enzyme) from an AMC standard range (1 RFU→0.02 pmol).
The evolution of the ratio 1/SA as a function of 1/[S] makes it possible to obtain the so-called double-inverse graph of Lineweaver-Burk from equation 4 (eq.4) where Vmaxapp and KMapp are the parameters which vary according to the type inhibition and as a function of inhibitor concentration. The intersection of the lines obtained for increasing inhibitor concentrations makes it possible to distinguish different types of inhibitors.
A secondary graph, obtained from the values of the slopes of the Lineweaver-Burk plot as a function of the concentration of inhibitor, makes it possible to obtain the value of the Ki. Its value is given by the abscissa point at the origin. […]

In assay [2] the target is T1, Caspase-3. Briefly: Caspase-3 inhibition assay for irreversible inhibitors (kinact/KI, continuous method). It counts as biochemical. The settings on record: human recombinant Caspase-3 0.5 nM, 37° C. On the procedure:
The efficiency of the comparative compound Δ2Me-TRP601, that is an already known group II Caspase inhibitor (inhibitor of Caspase-2, Caspase-3 and Caspase-7), has been assessed by a similar protocol described in Chauvier et al., 2011 Cell Death Dis 2011, 2:e203.
In this example, the Caspase-2 and Caspase-3 are human recombinant active enzymes that are respectively provided by Enzo Life® (ALX-201-057-U100) and R&D Systems® (707-C3-010/CF).
Caspase-2 is used at a final concentration of 0.1 nM in a “Caspase-2 buffer” containing 20 mM HEPES (pH 7.4), 5 mM DTT, 2 mM EDTA, 0.1% CHAPS and 800 mM succinate. […]
The peptide substrates used for the enzymatic activity measurements are Ac-DEVD-AMC and Ac-VDVAD-AMC commercialized by EnzoLife® (respectively referenced ALX-260-031-M005 and ALX-260-060-M005). […] The releasing of AMC enables to follow the enzymatic activity in fluorescence unit RFU over time in a 96-wells microplate.
The fluorescence values are measured at 37° C. with a spectrofluorometer with a microplate reader BMG FLUOstar OPTIMA. […]
The inhibitory properties of the tested compounds are evaluated by the determination of the kinact/KI ratio regarding either Caspase-2 or Caspase-3 wherein: • kinact is the maximal inactivation rate constant, and • KI is the dissociation constant according to: […]
The activities of the enzyme are measured between 45 and 60 minutes. […]

Where a SMILES comes first, the peptide text is derived from it. [ ]: non-standard residue; d: D form. The star is where a group is joined. Pro(3S-CH2tBu) = CC(C)(C)C[C@H]1CCN[C@@H]1C(=O)O; Quinaldoyl = O=C(c1ccc2ccccc2n1)*; X1 = c1ncc(CO*)s1

For `CC(C)[C@H](NC(=O)c1ccc2ccccc2n1)C(=O)N[C@@H](CC(=O)O)C(=O)N[C@H](C(=O)N1CC[C@H](CC(C)(C)C)[C@H]1C(=O)N[C@@H](CC(=O)O)C(=O)OCc1cncs1)C(C)C` [Compound 3, (S)-4-(((S)-1-((2S,3S)-2-(((S)-3-carboxy-1-oxo-1-(thiazol-5 - ylmethoxy)propan-2-yl)carbamoyl)-3-neopenthylpyrrolidin-1-yl)-3-methyl-1-oxobutan-2-yl)amino)-3-((S)-3-methyl-2-(quinoline-2-carboxamido)butanamido)-4-oxobutanoic acid] (Quinaldoyl-VDV[Pro(3S-CH2tBu)]D-X1), the “potency on Caspase-3” value in assay [1] is “considerably less potent on Caspase-3 than Ac-VDVAD-CHO”.
`CC(C)[C@H](NC(=O)c1ccc2ccccc2n1)C(=O)N[C@@H](CC(=O)O)C(=O)N[C@H](C(=O)N1CC[C@H](CC(C)(C)C)[C@H]1C(=O)N[C@@H](CC(=O)O)C(=O)COc1c(F)cccc1F)C(C)C` (single isomer, unassigned) [Compound 2 enantiomer a]: the “k3/KI Casp3” value in assay [2] is on record as 2 625 M^−1 · s^−1.
